Patent US9771352B2, “Hydroxyalkyl-substituted phenyltriazole derivatives and uses thereof” (BAYER PHARMA AKTIENGESELLSCHAFT, priority 2014, dated 2017)

Experiments:
human V2 receptor = target: T1, human V2 receptor (Homo sapiens, UniProt P30518); test: Cellular in vitro assay for determining vasopressin receptor activity, V2 receptor cell line (CRE-luciferase); format: cell-based; details: CHO cell line transfected with human V2 receptor; [Arg8]-vasopressin at EC50; compounds of the invention (Table 1A); read-out: IC50 hV2
T1 construct: expressed in transfected cells; host or cells: CHO K1 (ATCC) expressing firefly luciferase under a CRE-responsive promoter
T1 sequence (P30518 whole entry): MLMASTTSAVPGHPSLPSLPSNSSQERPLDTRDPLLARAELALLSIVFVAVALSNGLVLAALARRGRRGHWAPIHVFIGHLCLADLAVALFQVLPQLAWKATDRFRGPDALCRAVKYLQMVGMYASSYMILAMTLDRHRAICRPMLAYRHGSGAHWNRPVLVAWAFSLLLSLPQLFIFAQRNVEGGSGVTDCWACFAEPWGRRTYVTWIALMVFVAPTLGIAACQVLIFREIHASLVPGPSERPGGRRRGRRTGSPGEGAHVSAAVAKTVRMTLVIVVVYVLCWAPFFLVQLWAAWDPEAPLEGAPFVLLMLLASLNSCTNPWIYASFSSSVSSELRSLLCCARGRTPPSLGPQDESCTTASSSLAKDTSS
Experimental: (§1) The identification of agonists and antagonists of the V1a and V2 vasopressin receptors from humans, rats and dogs as well as the quantification of the activity of the compounds of the invention is carried out using recombinant cell lines. These cell lines originally derive from a hamster's ovary epithelial cell (Chinese Hamster Ovary, CHO K1, ATCC: American Type Culture Collection, Manassas, Va. 20108, USA). The test cell lines constitutively express the human, rat or dog V1a or V2 receptors. In case of the […] V1a receptors, cells are also stably transfected with a modified form of the calcium-sensitive photoproteins aequorin (human and rat V1a) or obelin (dog V1a), which, after reconstitution with the cofactor coelenterazine, emit light when there are increases in free calcium concentrations [Rizzuto R, Simpson A W, Brini M, Pozzan T, Nature 358, 325-327 (1992); Illarionov B A, Bondar V S, Illarionova V A, Vysotski E S, Gene 153 (2), 273-274 (1995)]. The resulting vasopressin receptor cells react to stimulation of the recombinantly expressed V1a receptors by intracellular release of calcium ions, which can be quantified by the resulting photoprotein luminescence. The Gs-coupled V2 receptors are stably transfected into cell lines expressing the gene for firefly luciferase under control of a CRE-responsible promoter. Activation of V2 receptors induces the activation of the CRE-responsive promoter via cAMP increase, thereby inducing the expression of firefly luciferase. The light emitted by photoproteins of V1a cell lines as well as the light emitted by firefly luciferase of V2 cell lines corresponds to the activation or inhibition of the respective vasopressin receptor. The bioluminescence of the cell lines is detected using a suitable luminometer [Milligan G, Marshall F, Rees S, Trends in Pharmacological Sciences 17, 235-237 (1996)].
On the day before the assay, the cells are plated out in culture medium (DMEM/F12, 2% FCS, 2 mM glutamine, 10 mM HEPES) in 384-well microtiter plates and kept in a cell incubator (96% humidity, 5% v/v CO2, 37° C.). […] Upon addition of the cell lysis reagent Triton and the substrate luciferin, luminescence of firefly luciferase is measured in a luminometer.
(§2) Table 1A below lists individual IC50 values for the compounds of the invention (including diastereomeric mixtures as well as separated, enantiopure diastereomers) that were obtained from cell lines transfected with the human V1a or V2 receptor: […]

human V1a receptor = target: T2, human V1a receptor (Homo sapiens, UniProt P37288); test: Cellular in vitro assay for determining vasopressin receptor activity, V1a receptor cell line (photoprotein luminescence); format: cell-based; details: CHO cell line transfected with human V1a receptor; [Arg8]-vasopressin at EC50; compounds of the invention (Table 1A); read-out: IC50 hV1a
T2 construct: expressed in transfected cells; host or cells: CHO K1 (ATCC), also stably transfected with modified aequorin
T2 sequence (P37288 whole entry): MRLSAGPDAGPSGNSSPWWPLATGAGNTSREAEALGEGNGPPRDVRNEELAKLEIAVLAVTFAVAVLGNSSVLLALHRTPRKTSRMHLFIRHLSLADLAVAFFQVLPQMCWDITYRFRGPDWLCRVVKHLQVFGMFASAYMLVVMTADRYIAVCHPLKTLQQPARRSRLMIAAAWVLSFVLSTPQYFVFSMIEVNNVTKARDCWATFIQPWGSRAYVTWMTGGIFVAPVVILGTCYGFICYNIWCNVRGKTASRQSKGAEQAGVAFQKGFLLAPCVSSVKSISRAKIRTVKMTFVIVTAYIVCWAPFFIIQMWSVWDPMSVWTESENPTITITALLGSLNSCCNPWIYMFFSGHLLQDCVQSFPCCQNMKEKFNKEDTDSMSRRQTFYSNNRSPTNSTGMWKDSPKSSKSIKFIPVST
Experimental: as §1
On the day before the assay, the cells are plated out in culture medium (DMEM/F12, 2% FCS, 2 mM glutamine, 10 mM HEPES, 5 μg/ml coelenterazine) in 384-well microtiter plates and kept in a cell incubator (96% humidity, 5% v/v CO2, 37° C.). On the day of the assay, test compounds in various concentrations are placed for 10 minutes in the wells of the microtiter plate before the agonist [Arg^8]-vasopressin at EC50 concentration is added. The resulting light signal is measured immediately in the luminometer.
as §2

conscious rats = test: Diuresis investigations in conscious rats kept in metabolism cages; format: in vivo, Wistar rats; details: Rattus norvegicus, po, read-out: Urinary volume; for response vs control in vivo at 0.3 mg/kg: dosage p.o. 0.3 mg/kg (Table 2A); for response vs control in vivo at 3 mg/kg: dosage p.o. 3.0 mg/kg (Table 2A)
Experimental: Wistar rats (220-450 g body weight) are kept with free access to feed (Altromin) and drinking water. During the experiment, the animals are kept with free access to drinking water for 4 to 8 or up to 24 hours individually in metabolism cages suitable for rats of this weight class (Tecniplast Deutschland GmbH, D-82383 HohenpeiBenberg). At the beginning of the experiment, the animals are administered the test substance in a volume of 1 to 3 ml/kg body weight of a suitable solvent by means of gavage into the stomach. Control animals only receive solvent. Controls and substance tests are carried out in parallel on the same day. Control groups and substance-dose groups each consist of 4 to 8 animals. During the experiment, the urine excreted by the animals is collected continuously in a receiver at the base of the cage. The volume of urine per time unit is determined separately for each animal, and the concentration of urinary electrolytes is measured by standard methods of flame photometry. Before the beginning of the experiment, the body weight of the individual animals is determined.

Compound | IC50 (human V2 receptor) | IC50 (human V1a receptor) | response vs control in vivo at 0.3 mg/kg (conscious rats) | response vs control in vivo at 1 mg/kg (conscious rats; dosage p.o. 1.0 mg/kg (Table 2A)) | response vs control in vivo at 3 mg/kg (conscious rats)
CC(O)c1nc(Cn2nc(-c3ccc(Cl)cc3)n(C[C@H](O)C(F)(F)F)c2=O)nn1-c1ccccc1 (single isomer, unassigned) [Example 17] | 3.4 nM | 2.7 nM | 404% | 819% | 
COc1ccccc1-n1nc(Cn2nc(-c3ccc(Cl)cc3)n(C[C@H](O)C(F)(F)F)c2=O)nc1CO [Example 3, 5-(4-Chlorophenyl)-2-{[5-(hydroxymethyl)-1-(2-methoxyphenyl)-1H-1,2,4-triazol-3-yl]methyl}-4-[(2S)-3,3,3-trifluoro-2-hydroxypropyl]-2,4-dihydro-3H-1,2,4-triazol-3-one] | 5.6 nM | 1 nM | 89% |  | 450%
CC(O)c1nc(Cn2nc(-c3ccc(Cl)cc3)n(C[C@H](O)C(F)(F)F)c2=O)nn1-c1ccc(F)c(Cl)c1 (single isomer, unassigned) [Example 45] | 3.3 nM | 92.1 nM |  |  | 
CC(O)c1nc(Cn2nc(-c3ccc(Cl)cc3)n(C[C@H](O)C(F)(F)F)c2=O)nn1-c1cccc(C(F)(F)F)c1 (single isomer, unassigned) [Example 24] | 2 nM | 120 nM |  |  | 
CCc1ccccc1-n1nc(Cn2nc(-c3ccc(Cl)cc3)n(C[C@H](O)C(F)(F)F)c2=O)nc1C(C)O (mixture of isomers) [Example 31, 5-(4-Chlorophenyl)-2-({1-(2-ethylphenyl)-5-[(1RS)-1-hydroxyethyl]-1H-1,2,4-triazol-3-yl}-methyl)-4-[(2S)-3,3,3-trifluoro-2-hydroxypropyl]-2,4-dihydro-3H-1,2,4-triazol-3-one] | 0.9 nM | 1.6 nM |  |  | 
CC(O)c1nc(Cn2nc(-c3ccc(Cl)cc3)n(C[C@H](O)C(F)(F)F)c2=O)nn1-c1cc(Cl)ccc1Cl (single isomer, unassigned) [Example 50] | 10 nM | 1.3 nM |  |  | 
CC(O)c1nc(Cn2nc(-c3ccc(Cl)cc3)n(C[C@H](O)C(F)(F)F)c2=O)nn1-c1cccc(C(F)F)c1 (single isomer, unassigned) [Example 20] | 0.8 nM | 3.8 nM |  |  | 
CC(O)c1nc(Cn2nc(-c3ccc(Cl)cc3)n(C[C@H](O)C(F)(F)F)c2=O)nn1-c1cc(Cl)cc(Cl)c1 (single isomer, unassigned) [Example 48] | 2.4 nM | 3.2 nM |  |  | 
COc1ccc(F)cc1-n1nc(Cn2nc(-c3ccc(Cl)cc3)n(C[C@H](O)C(F)(F)F)c2=O)nc1C(C)O (single isomer, unassigned) [Example 38] | 0.9 nM | 0.6 nM |  |  | 
CC(O)c1nc(Cn2nc(-c3ccc(Cl)cc3)n(C[C@H](O)C(F)(F)F)c2=O)nn1-c1cc(F)cc(F)c1 (mixture of isomers) [Example 25, 5-(4-Chlorophenyl)-2-({1-(3,5-difluorophenyl)-5-[(1RS)-1-hydroxyethyl]-1H-1,2,4-triazol-3-yl}-methyl)-4-[(2S)-3,3,3-trifluoro-2-hydroxypropyl]-2,4-dihydro-3H-1,2,4-triazol-3-one] | 3.6 nM | 7.2 nM |  |  | 
CC(O)c1nc(Cn2nc(-c3ccc(Cl)cc3)n(C[C@H](O)C(F)(F)F)c2=O)nn1-c1ccccc1F (single isomer, unassigned) [Example 41] | 7.9 nM | 1.8 nM |  |  | 
CC(O)c1nc(Cn2nc(-c3ccc(Cl)cc3)n(C[C@H](O)C(F)(F)F)c2=O)nn1-c1ccc(F)c(Cl)c1 (single isomer, unassigned) [Example 44] | 1.2 nM | 6.1 nM |  |  | 
CC(O)c1nc(Cn2nc(-c3ccc(Cl)cc3)n(C[C@H](O)C(F)(F)F)c2=O)nn1-c1ccc(F)c(Cl)c1 (mixture of isomers) [Example 43, 2-({1-(3-Chloro-4-fluorophenyl)-5-[(1RS)-1-hydroxyethyl]-1H-1,2,4-triazol-3-yl}methyl)-5-(4-chlorophenyl)-4-[(2S)-3,3,3-trifluoro-2-hydroxypropyl]-2,4-dihydro-3H-1,2,4-triazol-3-one] | 1.2 nM | 6.2 nM |  |  | 
COc1ccccc1-n1nc(Cn2nc(-c3ccc(Cl)cc3)n(C[C@H](O)C(F)(F)F)c2=O)nc1C(C)O (single isomer, unassigned) [Example 11] | 0.3 nM | 0.4 nM |  |  | 

Further lines, with some results ahead:

IC50 (human V2 receptor) | IC50 (human V1a receptor) | Compound | response vs control in vivo at 0.3 mg/kg (conscious rats) | response vs control in vivo at 1 mg/kg (conscious rats; dosage p.o. 1.0 mg/kg (Table 2A)) | response vs control in vivo at 3 mg/kg (conscious rats)
1.1 nM | 0.5 nM | Cc1ccccc1-n1nc(Cn2nc(-c3ccc(Cl)cc3)n(C[C@H](O)C(F)(F)F)c2=O)nc1C(C)O (single isomer, unassigned) [Example 70] | 139% |  | 595%
13.5 nM | 12.5 nM | C[C@@H](O)c1nc(Cn2nc(-c3ccc(Cl)cc3)n(C[C@H](O)C(F)(F)F)c2=O)nn1-c1cccc(F)c1 [Example 77, 5-(4-Chlorophenyl)-2-({1-(3-fluorophenyl)-5-[(1R)-1-hydroxyethyl]-1H-1,2,4-triazol-3-yl}-methyl)-4-[(2S)-3,3,3-trifluoro-2-hydroxypropyl]-2,4-dihydro-3H-1,2,4-triazol-3-one] |  |  | 
0.2 nM | 3.2 nM | CC(O)c1nc(Cn2nc(-c3ccc(Cl)cc3)n(C[C@H](O)C(F)(F)F)c2=O)nn1-c1cccc(Cl)c1Cl (mixture of isomers) [Example 61, 5-(4-Chlorophenyl)-2-({1-(2,3-dichlorophenyl)-5-[(1RS)-1-hydroxyethyl]-1H-1,2,4-triazol-3-yl}-methyl)-4-[(2S)-3,3,3-trifluoro-2-hydroxypropyl]-2,4-dihydro-3H-1,2,4-triazol-3-one] |  |  | 
1.9 nM | 4 nM | CC(O)c1nc(Cn2nc(-c3ccc(Cl)cc3)n(C[C@H](O)C(F)(F)F)c2=O)nn1-c1cccc(F)c1F (single isomer, unassigned) [Example 66] |  |  | 
2.7 nM | 2.1 nM | CC(O)c1nc(Cn2nc(-c3ccc(Cl)cc3)n(C[C@H](O)C(F)(F)F)c2=O)nn1-c1cccc(F)c1Cl (single isomer, unassigned) [Example 67] |  |  | 
1.4 nM | 2.4 nM | CC(O)c1nc(Cn2nc(-c3ccc(Cl)cc3)n(C[C@H](O)C(F)(F)F)c2=O)nn1-c1cccc(OC(F)F)c1 (single isomer, unassigned) [Example 56] |  |  | 
0.9 nM | 7.8 nM | CC(O)c1nc(Cn2nc(-c3ccc(Cl)cc3)n(C[C@H](O)C(F)(F)F)c2=O)nn1-c1cccc(Cl)c1Cl (single isomer, unassigned) [Example 62] |  |  | 
4.2 nM | 14.8 nM | CC(O)c1nc(Cn2nc(-c3ccc(Cl)cc3)n(C[C@H](O)C(F)(F)F)c2=O)nn1-c1cccc(OC(F)F)c1 (mixture of isomers) [Example 55, 5-(4-Chlorophenyl)-2-({1-[3-(difluoromethoxy)phenyl]-5-[(1RS)-1-hydroxyethyl]-1H-1,2,4-triazol-3-yl}methyl)-4-[(2S)-3,3,3-trifluoro-2-hydroxypropyl]-2,4-dihydro-3H-1,2,4-triazol-3-one] |  |  | 
1.9 nM | 51.6 nM | CC(O)c1nc(Cn2nc(-c3ccc(Cl)cc3)n(C[C@H](O)C(F)(F)F)c2=O)nn1-c1cccc(Cl)c1Cl (single isomer, unassigned) [Example 63] |  |  | 
